Source: ChEMBL document CHEMBL2311490 (Bioorg Med Chem Lett, 2013)

Legend:
[1] = target: T1, Melatonin receptor type 1B (Homo sapiens, UniProt P49286); assay: Displacement of [125I]2-iodomelatonin from human recombinant MT2 receptor expressed in HEK293 cells after 2 hrs by gamma counting; assay type: cell-based
T1 sequence (P49286 whole entry): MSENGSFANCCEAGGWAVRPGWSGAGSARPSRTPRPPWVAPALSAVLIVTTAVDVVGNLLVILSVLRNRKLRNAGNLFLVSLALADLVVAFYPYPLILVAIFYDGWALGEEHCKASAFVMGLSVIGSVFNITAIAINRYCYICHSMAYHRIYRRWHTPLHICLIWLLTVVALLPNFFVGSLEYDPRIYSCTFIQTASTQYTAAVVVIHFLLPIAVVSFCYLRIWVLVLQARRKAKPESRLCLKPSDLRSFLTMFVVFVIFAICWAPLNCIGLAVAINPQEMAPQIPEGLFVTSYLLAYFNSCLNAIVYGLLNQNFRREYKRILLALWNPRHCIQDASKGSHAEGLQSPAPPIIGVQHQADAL

[2] = Displacement of [125I]2-iodomelatonin from melatonin receptor in chicken brain membranes after 60 mins by gamma counting; assay type: cell membranes, Gallus gallus, Membrane
[3] = target: Melatonin receptor type 1A (Homo sapiens, UniProt P48039); assay: Displacement of [125I]2-iodomelatonin from human recombinant MT1 receptor expressed in HEK293 cells after 2 hrs by gamma counting; assay type: cell-based
Sequence of Melatonin receptor type 1A (P48039 whole entry): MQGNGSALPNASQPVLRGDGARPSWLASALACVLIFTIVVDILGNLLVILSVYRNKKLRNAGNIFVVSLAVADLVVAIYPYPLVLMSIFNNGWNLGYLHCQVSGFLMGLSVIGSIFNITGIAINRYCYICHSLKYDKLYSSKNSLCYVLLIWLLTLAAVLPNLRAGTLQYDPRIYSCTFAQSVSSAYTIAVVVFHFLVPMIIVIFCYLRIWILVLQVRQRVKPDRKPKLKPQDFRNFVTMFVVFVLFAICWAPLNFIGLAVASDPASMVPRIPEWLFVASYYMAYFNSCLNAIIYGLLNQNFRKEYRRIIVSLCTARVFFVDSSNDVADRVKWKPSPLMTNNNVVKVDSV

[4] = species: Xenopus laevis; assay: Antimelanogenic activity in Xenopus laevis tadpoles assessed as melanophore aggregation by microscopy relative to melatonin; assay type: functional
[5] = species: Xenopus laevis; assay: Antimelanogenic activity in Xenopus laevis tadpoles assessed as melanophore aggregation by microscopy; assay type: functional, organism-based
[6] = species: Xenopus laevis; assay: Ratio of melatonin EC50 to compound EC50 for antimelanogenic activity in Xenopus laevis tadpoles assessed as melanophore aggregation by microscopy; assay type: functional

Row | SMILES | Ki [1] [nM] | Ki [2] [nM] | Ki [3] [nM] | EC50 [5] [nM] | fold change (FC) [4] | Ratio EC50 [6]
1 | COc1ccc2cccc(/C=C/NC(C)=O)c2c1 | 0.03 | 0.16 | 0.04 | 0.035 | 6.1 | 
2 | COc1ccc2cccc(CCNC(C)=O)c2c1 [AGOMELATINE] |  | 0.67 |  | 0.35 |  | 
3 | CC(=O)N/C=C/c1cccc2ccccc12 | 1.4 |  | 6.7 | 854 | 0.0031 | 
4 | CNC(=O)N/C=C/c1cc(OC)ccc1OC |  | > 1000 |  |  |  | 
5 | COc1ccc(OC)c([C@@H]2C[C@H]2NC(C)=O)c1 (racemic) | 86 | 130 | 87 |  |  | 
6 | CC(=O)N[C@@H]1C[C@H]1c1cccc2ccccc12 (racemic) | 6.8 | 128 | 19 | > 10000 |  | 
7 | COc1cccc(/C=C/NC(C)=O)c1 |  | 803 |  |  |  | 
8 | CNC(=O)N/C=C/c1cccc2ccc(OC)cc12 |  | 0.44 |  |  |  | 
9 | CNC(=O)N/C=C/c1cccc2ccccc12 | 15 | 139 | 25 |  |  | 
10 | CNC(=O)N/C=C/c1c(OC)ccc2ccc(OC)cc12 | 0.3 | 0.08 | 0.2 |  |  | 
11 | COc1ccc(OC)c(/C=C/NC(C)=O)c1 |  | 283 |  |  |  | 
12 | COc1ccc2ccc(OC)c([C@@H]3C[C@H]3NC(C)=O)c2c1 (racemic) | 0.2 | 0.46 | 0.06 | 0.01 | 264 | 

Second part, led by results:

Row | Ki [1] [nM] | Ki [2] [nM] | Ki [3] [nM] | EC50 [5] [nM] | SMILES | fold change (FC) [4] | Ratio EC50 [6]
13 |  | > 1000 |  |  | COc1ccccc1[C@@H]1C[C@H]1NC(C)=O (racemic) |  | 
14 |  | > 1000 |  |  | COc1ccc(OC)c([C@@H]2C[C@@H]2NC(C)=O)c1 (racemic) |  | 
15 |  | 93 |  |  | COc1cccc([C@@H]2C[C@H]2NC(C)=O)c1 (racemic) |  | 
16 | 6.5 | 36.6 | 3.1 |  | CNC(=O)N/C=C/c1c(OC)ccc2ccccc12 |  | 
17 | 0.07 | 0.012 | 0.03 | 0.00076 | COc1ccc2ccc(OC)c(/C=C/NC(C)=O)c2c1 | 3473 | 1000
18 | 0.7 | 1.6 | 0.3 | 155 | COc1ccc2cccc([C@@H]3C[C@H]3NC(C)=O)c2c1 (racemic) | 0.017 | 
19 |  | 0.54 |  |  | COc1ccc2[nH]cc(CCNC(C)=O)c2c1 [MELATONIN] |  | 
20 | 0.09 | 4.6 | 0.1 | 93.5 | COc1ccc2ccccc2c1/C=C/NC(C)=O | 0.028 | 
21 | 2.6 | 15 | 3.7 | 101 | COc1ccc2ccccc2c1[C@@H]1C[C@H]1NC(C)=O (racemic) | 0.025 | 
22 |  | > 1000 |  |  | COc1ccccc1/C=C/NC(C)=O |  | 
23 | > 1000 |  | > 1000 |  | CNC(=O)N/C=C/c1ccccc1OC |  | 
